These results are taken from patent US7915270B2, “Oxazole ketones as modulators of fatty acid amide hydrolase” (The Scripps Research Institute, priority 2006, dated 2011).

In one data set the target is T1, Rat FAAH (Rattus norvegicus, UniProt P97612).
T1 construct: expressed in transfected cells
T1 sequence (P97612 1-579): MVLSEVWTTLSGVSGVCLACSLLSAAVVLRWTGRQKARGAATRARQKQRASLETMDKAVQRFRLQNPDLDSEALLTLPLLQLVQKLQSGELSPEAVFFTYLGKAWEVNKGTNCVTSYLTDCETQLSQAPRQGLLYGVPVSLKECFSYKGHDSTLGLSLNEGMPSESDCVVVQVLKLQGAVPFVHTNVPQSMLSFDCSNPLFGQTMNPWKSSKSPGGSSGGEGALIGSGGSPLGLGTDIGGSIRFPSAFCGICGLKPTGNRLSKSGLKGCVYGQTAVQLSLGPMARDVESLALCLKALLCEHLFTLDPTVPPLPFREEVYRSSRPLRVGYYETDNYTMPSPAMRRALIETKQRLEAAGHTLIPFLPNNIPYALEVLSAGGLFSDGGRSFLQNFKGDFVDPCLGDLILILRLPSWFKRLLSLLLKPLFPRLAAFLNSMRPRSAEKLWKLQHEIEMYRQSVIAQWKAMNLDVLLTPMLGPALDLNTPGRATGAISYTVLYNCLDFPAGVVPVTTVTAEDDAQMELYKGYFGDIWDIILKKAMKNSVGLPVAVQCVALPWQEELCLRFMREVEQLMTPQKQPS
The experiment in a line: Assay Method 2: FAAH assay, 3H-anandamide hydrolysis in cell homogenate (SK-N-MC cells transfected with rat FAAH). As to conditions: 3H-AEA 80 nM, rt 1 h, pH 9. It counts as biochemical. As to the method: A. Transfection of Cells with Rat FAAH
(§1) A 10-cm tissue culture dish with a confluent monolayer of SK—N-MC cells was split 2 days (d) prior to transfection. Using sterile technique, the media was removed and the cells were detached from the dish by the addition of trypsin. One fifth of the cells were then placed onto a new 10-cm dish. Cells were grown in a 37° C. incubator with 5% CO2 in Minimal Essential Media Eagle with 10% Fetal Bovine Serum. After 2 d, cells were approximately 80% confluent. These cells were removed from the dish with trypsin and pelleted in a clinical centrifuge. The pellet was re-suspended in 400 μL complete media and transferred to an electroporation cuvette with a 0.4 cm gap between the electrodes. Supercoiled rat FAAH cDNA (1 μg) was added to the cells and mixed. The voltage for the electroporation was set at 0.25 kV, and the capacitance was set at 960 μF. After electroporation, the cells were diluted into complete media (10 mL) and plated onto four 10-cm dishes. Because of the variability in the efficiency of electroporation, four different concentrations of cells were plated. The ratios used were 1:20, 1:10, and 1:5, with the remainder of the cells being added to the fourth dish. The cells were allowed to recover for 24 h before adding the selection media (complete media with 600 μg/mL G418). After 10 d, dishes were analyzed for surviving colonies of cells. Dishes with well-isolated colonies were used. Cells from individual colonies were isolated and tested.
The assay mixture consisted of 50 μL of the cell homogenate, 10 μL of the test compound, and 40 μL of anandamide [1-^3H-ethanolamine] (^3H-AEA, Perkin-Elmer, 10.3 Ci/mmol), which was added last, for a final tracer concentration of 80 nM. The reaction mixture was incubated at rt for 1 h. During the incubation, 96-well Multiscreen filter plates (catalog number MAFCNOB50; Millipore, Bedford, Mass., USA) were loaded with 25 μL of activated charcoal (Multiscreen column loader, catalog number MACL09625, Millipore) and washed once with 100 μL of MeOH. […] After the 1 h incubation, 60 μL of the reaction mixture were transferred to the charcoal plates, which were then assembled on top of the DYNEX plates using Centrifuge Alignment Frames (catalog number MACF09604, Millipore). The unbound labeled ethanolamine was centrifuged through to the bottom plate (5 min at 2000 rpm), which was preloaded with the scintillant, as described above. The plates were sealed and left at rt for 1 h before counting on a Hewlett Packard TopCount.

Data set [1] addresses T2, FAAH (Homo sapiens, UniProt O00519).
T2 sequence (O00519 1-579): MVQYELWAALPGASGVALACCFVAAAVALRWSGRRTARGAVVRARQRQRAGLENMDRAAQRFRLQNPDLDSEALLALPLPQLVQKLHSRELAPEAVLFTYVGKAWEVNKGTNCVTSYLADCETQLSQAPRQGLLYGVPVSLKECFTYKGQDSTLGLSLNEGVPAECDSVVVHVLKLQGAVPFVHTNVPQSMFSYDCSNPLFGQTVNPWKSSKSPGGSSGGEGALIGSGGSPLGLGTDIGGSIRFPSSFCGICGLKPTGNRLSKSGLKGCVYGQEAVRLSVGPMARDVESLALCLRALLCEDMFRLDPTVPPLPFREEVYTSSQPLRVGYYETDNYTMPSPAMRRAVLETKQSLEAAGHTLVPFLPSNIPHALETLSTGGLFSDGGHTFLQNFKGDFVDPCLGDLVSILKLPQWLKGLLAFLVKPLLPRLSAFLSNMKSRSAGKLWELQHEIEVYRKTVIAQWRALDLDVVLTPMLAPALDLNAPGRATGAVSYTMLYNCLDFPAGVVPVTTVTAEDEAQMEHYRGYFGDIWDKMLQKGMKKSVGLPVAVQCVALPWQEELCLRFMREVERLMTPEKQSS
The data set can be described thus: Assay Method 1B: FAAH assay, 3H-anandamide hydrolysis in cell homogenate (T84 or SK-N-MC cells transfected with human FAAH). It counts as biochemical. More on the design: expressed in transfected cells. As to conditions: 3H-AEA 80 nM, rt 1 h, pH 9. How it is done: as §1, with “Transfection of Cells with Human FAAH A 10-cm” for “A 10-cm”, “electrodes. Supercoiled human FAAH cDNA” for “electrodes. Supercoiled rat FAAH cDNA”, “and tested. […] The reaction mixture was incubated at rt for 1 h. During the incubation, 96-well Multiscreen filter plates (catalog number MAFCNOB50; Millipore, Bedford, Mass., USA) were loaded with 25 μL of activated charcoal (Multiscreen column loader, catalog number MACL09625, Millipore) and washed once with 100 μL of MeOH. Also during the incubation, 96-well DYNEX MicroLite plates (catalog number NL510410) were loaded with 100 μL of MicroScint40 (catalog number 6013641, Packard Bioscience, Meriden, Conn., USA). After the 1 h incubation, 60 μL of the reaction mixture were transferred to the charcoal plates, which were then assembled on top of the DYNEX plates using Centrifuge Alignment Frames (catalog number MACF09604, Millipore). The unbound labeled ethanolamine was centrifuged through to the bottom plate (5 min at 2000 rpm), which was preloaded with the scintillant, as described above. The plates were sealed and left at rt for 1 h before counting on a Hewlett Packard TopCount.” for “and tested.”

The target in data set [2] is T3, FAAH (Rattus norvegicus, UniProt P97612).
T3 sequence (P97612 1-579): T1 sequence (P97612 1-579)
The experiment in a line: Assay Method 1A: FAAH enzyme assay, 14C-oleamide hydrolysis, solubilized liver plasma membrane extract.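 Note: ki obtained by Dixon analysis, taking the x-intercept of inhibitor concentration versus reciprocal rate plots at fixed substrate level and correcting for substrate concentration relative to Km.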
Method: Linear least squares fits were used for all reaction progress curves and R^2 values were consistently >0.97. […] Ki values were determined by the Dixon Method (x-intercepts of weighted linear fits of [I] versus 1/rate plots at constant substrate concentration, which were converted to Ki values using the formula Ki=−xint/[1+[S]/Km]).

The nature of data set [3]: Solubility determination in water. It counts as physicochemical. As to conditions: thermodynamic from solid; in water at 5, 1 and 0.1 mg/mL; pH of resulting solutions 7-8.5. As to the method: Physical Chemical Properties
Solubility determinations were made by mixing the test compound in water at 5 mg/mL, 1 mg/mL, and 0.1 mg/mL concentrations. The pH of the resulting solutions was 7-8.5.

Molecules are shown by their SMILES.

What is called IC50 is the concentration that inhibits the measured activity by half. Low values mean greater potency in that assay, high ones weaker potency in that assay. The Ki is the dissociation constant of the complex between target and ligand, obtained from inhibition or displacement. High values mean weaker binding, low ones tighter binding. For `O=C(O)c1ccc(-c2cnc(C(=O)CCCCCCc3ccccc3)o2)cc1` [Example 26, 4-(2-(7-Phenylheptanoyl)oxazol-5-yl)benzoic acid], the IC50 worked out at 160 nM at Rat FAAH and 6 nM on FAAH [1]. Besides, the Ki on FAAH [2] was determined as 60 nM.
Regarding `Nc1ccccc1-c1cnc(C(=O)CCCCCCc2ccccc2)o1` [Example 27, 1-(5-(2-Aminophenyl)oxazol-2-yl)-7-phenylheptan-1-one], the IC50 came to 4000 nM against Rat FAAH and 1000 nM against FAAH [1]. Further, the affinity at FAAH [2], expressed as Ki, was 750 nM.
The matching figures for `Nc1cccc(-c2cnc(C(=O)CCCCCCc3ccccc3)o2)c1` [Example 28, 1-(5-(3-Aminophenyl)oxazol-2-yl)-7-phenylheptan-1-one]: 290 nM, 17 nM and 19 nM.
For `O=C(CCCCCCc1ccccc1)c1ncc(-c2ccccc2O)o1` [Example 30, 1-(5-(2-Hydroxyphenyl)oxazol-2-yl)-7-phenylheptan-1-one] the same measures were 3500 nM, 115 nM and 170 nM.
For the compound `COC(=O)c1ccc(-c2cnc(C(=O)CCCCCCc3ccccc3)o2)nc1` [Example 34, Methyl 6-(2-(7-phenylheptanoyl)oxazol-5-yl)nicotinate], the 50% inhibitory concentration (IC50) at Rat FAAH stood at 9 nM; on FAAH [1], 11 nM. Besides, on FAAH [2], the Ki turned out to be 4 nM.
For the compound `COC(=O)c1cccnc1-c1cnc(C(=O)CCCCCCc2ccccc2)o1` [Example 36, Methyl 2-(2-(7-phenylheptanoyl)oxazol-5-yl)nicotinate], the 50% inhibitory concentration (IC50) at Rat FAAH was 150 nM; at FAAH [1], 180 nM. The Ki on FAAH [2] was more than 50 nM.
As for `O=C(CCCCCCc1ccccc1)c1ncc(-c2cc(=O)[nH]c(=O)[nH]2)o1` [Example 52, 6-(2-(7-Phenylheptanoyl)oxazol-5-yl)pyrimidine-2,4(1H,3H)-dione], the 50% inhibitory concentration (IC50) at Rat FAAH was determined as 1.5 nM; on FAAH [1], 0.1 nM. For the same compound, the Ki on FAAH [2] was found to be 19 nM.
`COC(=O)c1ccc(-c2cnc(C(=O)CCCCCCc3ccccc3)o2)o1` [Example 55, Methyl 5-(2-(7-phenylheptanoyl)oxazol-5-yl)furan-2-carboxylate]: the IC50 against Rat FAAH turned out to be 20 nM; against FAAH [1], 11 nM. Moreover, the affinity on FAAH [2], expressed as Ki, was 6 nM.
Usually solubility stands for how much of the substance goes into solution per volume. Regarding `O=C(O)c1ccc(-c2cnc(C(=O)CCCCCCc3ccccc3)o2)o1` [Example 56, 5-(2-(7-Phenylheptanoyl)oxazol-5-yl)furan-2-carboxylic acid], the IC50 at Rat FAAH worked out at 2 nM; against FAAH [1] it was 0.8 nM. Moreover, in data set [3], the solubility was more than 5000 µg/mL. At FAAH [2], the affinity corresponds to a Ki of 15 nM.
Take `COC(=O)c1ccc(-c2cnc(C(=O)CCCCCCc3ccccc3)o2)s1` [Example 57, Methyl 5-(2-(7-phenylheptanoyl)oxazol-5-yl)thiophene-2-carboxylate]: the 50% inhibitory concentration (IC50) on Rat FAAH amounted to 75 nM; against FAAH [1] it was 6 nM. At FAAH [2], this compound yielded a Ki of 7 nM.
For `O=C(CCCCCCc1ccccc1)c1ncc(-c2ccc(C(=O)O)s2)o1` [Example 58, 5-(2-(7-Phenylheptanoyl)oxazol-5-yl)thiophene-2-carboxylic acid] the same measures were 9 nM, 1 nM and 11 nM.
The matching figures for `NS(=O)(=O)c1ccc(-c2cnc(C(=O)CCCCCCc3ccccc3)o2)s1` [Example 59, 5-(2-(7-Phenylheptanoyl)oxazol-5-yl)thiophene-2-sulfonamide]: 8 nM, 2 nM and 3 nM.
The matching figures for `O=C(CCCCCCc1ccccc1)c1ncc(-c2ccccc2C(=O)O)o1` [Example 60, 2-(2-(7-Phenylheptanoyl)oxazol-5-yl)benzoic acid]: 3000 nM, 440 nM and 6000 nM.
